Assay results as given in ChEMBL document CHEMBL3885881, “DrugMatrix”.

Species: Rattus norvegicus
Assay: DrugMatrix - Regimen: Daily Repeat
Assay type: toxicity, organism-based, Sprague-Dawley
Set-up: regimen Daily Repeat, gender Male, age 6-8 weeks
Details: in vivo, po, route oral GAVAGE, […]; for ABSOLUTE BASOPHIL / ABSOLUTE EOSINOPHIL / ABSOLUTE LYMPHOCYTE / ABSOLUTE MONOCYTE / ABSOLUTE SEGMENTED NEUTROPHIL / BASOPHIL / EOSINOPHIL / ERYTHROCYTE COUNT / HEMATOCRIT / HEMOGLOBIN / LEUKOCYTE COUNT / LYMPHOCYTE / MEAN CORPUSCULAR HEMOGLOBIN / MEAN CORPUSCULAR HEMOGLOBIN CONCENTRATION / MEAN CORPUSCULAR VOLUME / MONOCYTE / NEUTROPHIL / NUCLEATED RED BLOOD CELLS / PLATELET COUNT: tissue Blood; for ALANINE AMINOTRANSFERASE / ALBUMIN / ALKALINE PHOSPHATASE / ASPARTATE AMINOTRANSFERASE / BLOOD UREA NITROGEN / CARBON DIOXIDE / CHLORIDE / CHOLESTEROL / CREATINE PHOSPHOKINASE / CREATININE / GLUCOSE / LACTATE DEHYDROGENASE / LIPASE / PHOSPHORUS / POTASSIUM / SODIUM / TOTAL BILIRUBIN / TOTAL PROTEIN / URIC ACID: tissue Plasma
[1] = 50 mg/kg, 120 h, dose level Low, time 5 day
[2] = 175 mg/kg, 72 h, dose level High, time 3 day
[3] = 175 mg/kg, 120 h, dose level High, time 5 day

Oc1ncnc2[nH]ncc12 [ALLOPURINOL]
ABSOLUTE BASOPHIL [1]: 0 CELLS/uL | ABSOLUTE EOSINOPHIL [1]: 49 CELLS/uL | ABSOLUTE LYMPHOCYTE [1]: 17802 CELLS/uL | ABSOLUTE MONOCYTE [1]: 49 CELLS/uL | ABSOLUTE SEGMENTED NEUTROPHIL [1]: 1133.33 CELLS/uL | BASOPHIL [1]: 0% | EOSINOPHIL [1]: 0.33% | ERYTHROCYTE COUNT [1]: 5.63 x10E6/uL | HEMATOCRIT [1]: 35.03% | HEMOGLOBIN [1]: 13.73 G/DL | LEUKOCYTE COUNT [1]: 19.03 x10E3/uL | LYMPHOCYTE [1]: 93% | MEAN CORPUSCULAR HEMOGLOBIN [1]: 24.47 pg | MEAN CORPUSCULAR HEMOGLOBIN CONCENTRATION [1]: 39.27 G/DL | MEAN CORPUSCULAR VOLUME [1]: 62.33 fL | MONOCYTE [1]: 0.33% | NEUTROPHIL [1]: 6.33% | NUCLEATED RED BLOOD CELLS [1]: 0 /100WBC | PLATELET COUNT [1]: 1236.33 x10E3/uL | ALANINE AMINOTRANSFERASE [1]: 56.33 u/L | ALBUMIN [1]: 3.97 G/DL | ALKALINE PHOSPHATASE [1]: 308 u/L | ASPARTATE AMINOTRANSFERASE [1]: 104 u/L | BLOOD UREA NITROGEN [1]: 20 mg/dL | CARBON DIOXIDE [1]: 27 mmol/L | CHLORIDE [1]: 100 MEQ/L | CHOLESTEROL [1]: 65.33 mg/dL | CREATINE PHOSPHOKINASE [1]: 626 u/L | CREATININE [1]: 0.41 mg/dL | GLUCOSE [1]: 169.33 mg/dL | LACTATE DEHYDROGENASE [1]: 263.33 u/L | LIPASE [1]: 10 u/L | PHOSPHORUS [1]: 9.7 mg/dL | POTASSIUM [1]: 5.66 MEQ/L | SODIUM [1]: 141.17 MEQ/L | TOTAL BILIRUBIN [1]: 0.2 mg/dL | TOTAL PROTEIN [1]: 5.6 G/DL | URIC ACID [1]: 0.83 mg/dL | ABSOLUTE BASOPHIL [2]: 0 CELLS/uL | ABSOLUTE EOSINOPHIL [2]: 0 CELLS/uL | ABSOLUTE LYMPHOCYTE [2]: 8294 CELLS/uL | ABSOLUTE MONOCYTE [2]: 350.5 CELLS/uL | ABSOLUTE SEGMENTED NEUTROPHIL [2]: 4205.5 CELLS/uL | BASOPHIL [2]: 0% | EOSINOPHIL [2]: 0% | ERYTHROCYTE COUNT [2]: 5.27 x10E6/uL | HEMATOCRIT [2]: 32.2% | HEMOGLOBIN [2]: 12.95 G/DL | LEUKOCYTE COUNT [2]: 12.85 x10E3/uL | LYMPHOCYTE [2]: 64% | MEAN CORPUSCULAR HEMOGLOBIN [2]: 24.55 pg | MEAN CORPUSCULAR HEMOGLOBIN CONCENTRATION [2]: 40.3 G/DL | MEAN CORPUSCULAR VOLUME [2]: 61.1 fL | MONOCYTE [2]: 3% | NEUTROPHIL [2]: 33% | NUCLEATED RED BLOOD CELLS [2]: 0 /100WBC | PLATELET COUNT [2]: 1127 x10E3/uL | ALANINE AMINOTRANSFERASE [2]: 101 u/L | ALBUMIN [2]: 3.9 G/DL | ALKALINE PHOSPHATASE [2]: 397.5 u/L | ASPARTATE AMINOTRANSFERASE [2]: 153.5 u/L | BLOOD UREA NITROGEN [2]: 113.5 mg/dL | CARBON DIOXIDE [2]: 24.5 mmol/L | CHLORIDE [2]: 93 MEQ/L | CHOLESTEROL [2]: 99 mg/dL | CREATINE PHOSPHOKINASE [2]: 283.5 u/L | CREATININE [2]: 3.31 mg/dL | GLUCOSE [2]: 154.5 mg/dL | LACTATE DEHYDROGENASE [2]: 217.5 u/L | LIPASE [2]: 12 u/L | PHOSPHORUS [2]: 16.65 mg/dL | POTASSIUM [2]: 6.46 MEQ/L | SODIUM [2]: 141.2 MEQ/L | TOTAL BILIRUBIN [2]: 0.35 mg/dL | TOTAL PROTEIN [2]: 6.55 G/DL | URIC ACID [2]: 0.2 mg/dL | ABSOLUTE BASOPHIL [3]: 0 CELLS/uL | ABSOLUTE EOSINOPHIL [3]: 81.33 CELLS/uL | ABSOLUTE LYMPHOCYTE [3]: 15570.33 CELLS/uL | ABSOLUTE MONOCYTE [3]: 599.67 CELLS/uL | ABSOLUTE SEGMENTED NEUTROPHIL [3]: 6148.67 CELLS/uL | BASOPHIL [3]: 0% | EOSINOPHIL [3]: 0.33% | ERYTHROCYTE COUNT [3]: 5.7 x10E6/uL | HEMATOCRIT [3]: 35.5% | HEMOGLOBIN [3]: 13.77 G/DL | LEUKOCYTE COUNT [3]: 22.4 x10E3/uL | LYMPHOCYTE [3]: 69.33% | MEAN CORPUSCULAR HEMOGLOBIN [3]: 24.17 pg | MEAN CORPUSCULAR HEMOGLOBIN CONCENTRATION [3]: 38.8 G/DL | MEAN CORPUSCULAR VOLUME [3]: 62.27 fL | MONOCYTE [3]: 2.67% | NEUTROPHIL [3]: 27.67% | NUCLEATED RED BLOOD CELLS [3]: 0 /100WBC | PLATELET COUNT [3]: 1373 x10E3/uL | ALANINE AMINOTRANSFERASE [3]: 78.67 u/L | ALBUMIN [3]: 3.73 G/DL | ALKALINE PHOSPHATASE [3]: 409 u/L | ASPARTATE AMINOTRANSFERASE [3]: 102 u/L | BLOOD UREA NITROGEN [3]: 46.33 mg/dL | CARBON DIOXIDE [3]: 26.33 mmol/L | CHLORIDE [3]: 105.33 MEQ/L | CHOLESTEROL [3]: 83.67 mg/dL | CREATINE PHOSPHOKINASE [3]: 242.33 u/L | CREATININE [3]: 1.36 mg/dL | GLUCOSE [3]: 145 mg/dL | LACTATE DEHYDROGENASE [3]: 182.33 u/L | LIPASE [3]: 10.33 u/L | PHOSPHORUS [3]: 7.7 mg/dL | POTASSIUM [3]: 6.87 MEQ/L | SODIUM [3]: 149 MEQ/L | TOTAL BILIRUBIN [3]: 0.2 mg/dL | TOTAL PROTEIN [3]: 5.87 G/DL | URIC ACID [3]: 0.2 mg/dL
